Literature values in patent publication US20230071934A1, “NOVEL USES” (Intra-Cellular Therapies, Inc., priority 2019, published 2023).

Molecular target: T1, sEH (Homo sapiens, UniProt P34913)
T1 sequence (P34913 1-555): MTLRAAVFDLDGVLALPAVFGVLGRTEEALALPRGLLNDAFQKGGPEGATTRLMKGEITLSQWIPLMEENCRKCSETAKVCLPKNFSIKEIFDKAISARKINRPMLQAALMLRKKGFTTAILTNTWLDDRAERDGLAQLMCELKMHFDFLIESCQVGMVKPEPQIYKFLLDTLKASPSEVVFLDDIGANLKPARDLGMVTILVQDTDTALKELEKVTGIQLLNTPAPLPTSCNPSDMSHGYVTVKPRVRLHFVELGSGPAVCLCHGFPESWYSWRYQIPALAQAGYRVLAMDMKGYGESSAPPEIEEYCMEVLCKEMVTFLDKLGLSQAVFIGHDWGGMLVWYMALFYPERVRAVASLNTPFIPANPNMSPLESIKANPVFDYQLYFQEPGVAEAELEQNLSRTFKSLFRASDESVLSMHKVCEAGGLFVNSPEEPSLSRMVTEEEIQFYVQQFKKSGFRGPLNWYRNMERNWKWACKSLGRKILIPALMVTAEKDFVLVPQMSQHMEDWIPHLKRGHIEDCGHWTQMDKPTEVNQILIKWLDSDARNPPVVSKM

activity as an inhibitor of sEH: particularly high activity
Structure (SMILES): CCCCCCCCCCCCNC(=O)NC12CC3CC(CC(C3)C1)C2 [ADU, N-Adamantyl-N′-dodecyl urea]
